Test results as given in patent US5849526A, “Use of linalool synthase in genetic engineering of scent production” (The Regents of the University of Michigan, priority 1996, dated 1998).
Where two headings read alike, the source gives them in different places.

Experiments:
[1] = biological target: T1, C. breweri S-linalool synthase (Clarkia breweri, UniProt Q96376); test: S-linalool synthase (LIS) enzyme assay: conversion of [1-3H]-GPP to linalool, hexane/pentane overlay, scintillation counting or radio-GC; format: biochemical; details: for rate of conversion to linalool relative to the rate for GPP: LPP enantiomers tested as alternate substrates; for Rate (substrate specificity, relative to GPP = 100%): putative substrates tested at 12 μM, averages and SE of four replicate determinations; for whether the divalent metal ion supports the enzymatic reaction (Neither ... nor ... support): at 1 to 10 mM, as the chloride salts; for efficiency of divalent metal ion as cofactor (in words): Mg2+ substituting for Mn2+; for effect of detergent on enzyme activity: 0.1% w/v (SDS at similar levels); for Specific Activity: by purification step, starting material 10 g excised stigmata
T1 construct: active as monomer; not recombinant
T1 sequence (Q96376 1-870): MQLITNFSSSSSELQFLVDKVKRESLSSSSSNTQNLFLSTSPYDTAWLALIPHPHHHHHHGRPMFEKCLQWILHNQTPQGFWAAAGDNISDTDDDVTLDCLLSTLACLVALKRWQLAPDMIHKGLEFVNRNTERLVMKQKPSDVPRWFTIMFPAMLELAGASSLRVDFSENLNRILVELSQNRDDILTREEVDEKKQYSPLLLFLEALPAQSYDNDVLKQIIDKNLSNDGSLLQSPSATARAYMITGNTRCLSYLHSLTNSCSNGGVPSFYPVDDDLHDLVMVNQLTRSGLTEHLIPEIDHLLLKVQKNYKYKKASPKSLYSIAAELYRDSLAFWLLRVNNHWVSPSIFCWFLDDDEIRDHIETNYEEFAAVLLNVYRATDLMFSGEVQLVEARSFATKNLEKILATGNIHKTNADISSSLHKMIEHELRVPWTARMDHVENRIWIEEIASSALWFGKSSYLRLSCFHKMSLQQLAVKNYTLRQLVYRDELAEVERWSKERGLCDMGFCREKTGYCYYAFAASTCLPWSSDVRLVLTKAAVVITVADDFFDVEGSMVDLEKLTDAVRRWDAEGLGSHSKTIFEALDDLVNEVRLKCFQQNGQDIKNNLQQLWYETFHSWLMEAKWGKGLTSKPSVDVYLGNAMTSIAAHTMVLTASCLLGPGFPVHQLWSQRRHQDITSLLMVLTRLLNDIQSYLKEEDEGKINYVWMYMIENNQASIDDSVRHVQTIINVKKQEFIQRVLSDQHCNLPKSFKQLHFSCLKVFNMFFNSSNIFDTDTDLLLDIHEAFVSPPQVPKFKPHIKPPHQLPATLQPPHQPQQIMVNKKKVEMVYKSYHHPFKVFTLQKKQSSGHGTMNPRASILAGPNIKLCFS
Description: The crude extract (100 ml) was loaded onto a DEAE-cellulose (0.7 cm diam.×6 cm) column (Whatman, DE52) that was pre-equilibrated with a solution containing 50 mM BisTris, pH 6.9, 10% glycerol and 10 mM DTT (buffer A) at a flow rate of about 1 ml/min. Following elution of the unadsorbed material, the column was washed with 50 ml of buffer A followed by an additional 20 ml of buffer A containing 150 mM KCl. LIS activity was then eluted with 20 ml of buffer A containing 250 mM KCl. Fractions with the highest LIS activity (about 60% yield, 10 ml), were either pooled and used immediately, or frozen at -20° C. for up to 1 month with less than 20% loss of activity. The DEAE-cellulose purified fractions were diluted 2-fold with ice-cold buffer A, and loaded on a 1 cm diam.×10cm hydroxyapatite column (Bio-Gel HT, Bio-Rad, Richmond, Calif.) installed in a Pharmacia FPLC apparatus, and pre-equilibrated with 100 ml of buffer A, at a flow rate of 0.5 ml/min. After the enzyme was loaded, the column was washed with 20 ml buffer A and then eluted using a linear gradient (100 ml) from 0 to 200 mM Na-phosphate in buffer A. The fractions containing LIS activity, eluting at about 100 mM Na-phosphate, were pooled (10 to 16 ml) and loaded on a pre-packed Pharmacia Mono-Q HR 5/5 FPLC column equilibrated with buffer A. After a 20-ml wash with buffer A, a steep linear gradient from 0 to 100 mM KCl in buffer A (10 ml) was applied, followed by a more gradual linear gradient from 100 to 400 mM KCl in buffer A (100 ml, 0.25 ml/min). The enzyme consistently eluted at about 220 mM KCl. After dialysis to assay conditions, the enzyme at this level of purity was used for characterization.
After incubation, the assay mixture was briefly mixed again to extract non-polar products into the organic layer. An 800-μl aliquot of the hexane phase was placed into a scintillation vial containing 10 ml of a cocktail of 0.4% (w/v) Omnifluor (Du Pont, Boston Mass.) dissolved in 30% (v/v) ethanol in toluene and counted in a Packard TriCarb 460 CD scintillation spectrometer (efficiency for ^3 H=36%) to determine the total monoterpene synthase activity. To examine in detail the products formed, radio-GC was performed as described (Croteau et al., 1990). For this purpose, the 2 ml pentane extract containing the enzymatically formed ^3 H-labeled products was removed, dried by passage through MgSO4, and internal standards were added (10 μg each of linalool and geraniol; nerol was UD also included in initial experiments). The mixture was then concentrated to ~10 μl under a gentle stream of nitrogen, and an aliquot (2-3 μl) was injected into a Gow-Mac 550P radio gas chromatograph fitted with a 0.125 in ×12 ft stainless steel column loaded with AT-1000 (Gas Chrom Q, Alltech), attached to a Packard 894 gas proportional counter. The initial column temperature was 170° C. and, following a 5 min hold, was programmed at 5° C./min to 220° C., using He at a flow rate of 50 ml/min. Control incubations included the omission of enzyme extract, the use of boiled enzyme extract, the omission of substrate, and the omission of divalent cations. All of these controls produced negligible radioactivity in the hexane phase of the enzyme assay mixtures.
The enantiomeric composition of linalool samples was determined on a fused silica capillary column (0.25 mm internal diam.×30 m) coated with a 0.25 μm film of β-cyclodextrin (J & W Scientific, Cyclodex B), operated at an initial temperature of 75° C. for 15 min followed by a rise of 5° C./min to 200° C. H2 at a head pressure of 13.5 psi was used as carrier gas (Alonso et al., 1992).

[2] = biological target: T2, LIS (linalool synthase) in crude extracts (Clarkia breweri, UniProt Q96376); test: LIS activity assay in crude extracts of open C. breweri flowers; format: biochemical
T2 sequence (Q96376 1-870): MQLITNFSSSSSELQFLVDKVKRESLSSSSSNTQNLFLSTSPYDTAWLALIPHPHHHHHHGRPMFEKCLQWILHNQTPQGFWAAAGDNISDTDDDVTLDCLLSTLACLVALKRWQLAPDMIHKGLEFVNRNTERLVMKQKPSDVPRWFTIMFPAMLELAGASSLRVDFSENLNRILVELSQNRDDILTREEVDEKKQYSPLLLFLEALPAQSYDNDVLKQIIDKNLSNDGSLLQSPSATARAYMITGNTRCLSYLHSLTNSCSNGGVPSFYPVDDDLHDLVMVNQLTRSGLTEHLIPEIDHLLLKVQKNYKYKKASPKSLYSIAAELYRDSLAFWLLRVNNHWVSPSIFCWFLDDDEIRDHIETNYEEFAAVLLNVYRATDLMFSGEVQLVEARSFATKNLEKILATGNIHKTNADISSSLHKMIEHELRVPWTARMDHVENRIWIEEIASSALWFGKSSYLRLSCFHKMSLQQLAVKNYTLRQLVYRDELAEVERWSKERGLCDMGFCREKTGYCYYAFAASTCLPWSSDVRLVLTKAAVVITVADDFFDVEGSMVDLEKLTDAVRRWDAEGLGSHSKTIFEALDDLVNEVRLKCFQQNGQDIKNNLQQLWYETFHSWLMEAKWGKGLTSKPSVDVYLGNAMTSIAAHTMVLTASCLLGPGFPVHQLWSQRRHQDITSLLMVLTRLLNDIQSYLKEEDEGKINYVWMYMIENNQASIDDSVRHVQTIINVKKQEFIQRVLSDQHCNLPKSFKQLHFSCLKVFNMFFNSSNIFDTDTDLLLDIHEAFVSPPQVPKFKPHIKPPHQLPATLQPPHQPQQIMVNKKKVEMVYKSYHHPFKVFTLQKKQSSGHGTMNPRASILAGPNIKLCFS
Description: LIS activity was assayed by combining crude extract with ^3 H-GPP (or other substrates) in a buffer containing co-factors. LIS activity was monitored by counting the radioactive linalool extracted from the assay buffer with hexane (GPP is not soluble in hexane) in a scintillation counter. Radio-GC analyses (Croteau et al., 1990) were also undertaken because GPP could be enzymatically hydrolyzed by non-specific phosphatases to produce geraniol, or the tissue might contain other monoterpene synthases, and geraniol or the other monoterpenes that may be produced are also soluble in the organic phase. […] Furthermore, with a special stereo-GC column it was also shown that the product of the reaction is exclusively S-linalool.
A crude protein extract was prepared by macerating flower parts in a microcentrifuge tube in the presence of ice-cold buffer (10 volumes:fresh weight) containing 50 mM BisTris-HCl pH 6.9, 10 mM DTT, 5 mM Na2 S2 O5, 1% (w/v) PVP-40 and 10% (v/v) glycerol. The slurry was centrifuged for 10 min and the supernatant transferred to a new tube. For each time point, extracts of 3 to 5 flowers from 3 different plants were combined. […]
After 1 h, the tube was vortexed again and the amount of the radioactive linalool product, which partitioned into the organic phase, was determined by an LSC of an aliquot. […]

[3] = divalent metal ion required for activity, read-out: Km of divalent metal ion cofactor

For `[3H]C=C[C@@](C)(CCC=C(C)C)OP(=O)(O)OP(=O)(O)O` [3R-[1-^3 H]Linalyl pyrophosphate, reference compound], the “rate of conversion to linalool relative to the rate for GPP” value [1] was “essentially not converted to linalool” and the “Rate (substrate specificity, relative to GPP = 100%)” value [1] was 0.6 ± 0.6%.

`[3H]C=C[C@](C)(CCC=C(C)C)OP(=O)(O)OP(=O)(O)O` [3S-[1-^3 H]Linalyl pyrophosphate, reference compound] was tested, and the “rate of conversion to linalool relative to the rate for GPP” value [1] was 15% and the “Rate (substrate specificity, relative to GPP = 100%)” value [1] was 15.1 ± 6.0%.

With `[Ca+2]` [Ca^2+] the “whether the divalent metal ion supports the enzymatic reaction (Neither ... nor ... support)” value [1] was “Neither”.

For `[Co+2]` [Co^2+], the “whether the divalent metal ion supports the enzymatic reaction (Neither ... nor ... support)” value [1] was “Neither”.

For `[Cu+2]` [Cu^2+], the “whether the divalent metal ion supports the enzymatic reaction (Neither ... nor ... support)” value [1] was “Neither”.

In the case of `CC(C)=CCC/C(C)=C/COP(=O)(O)OP(=O)(O)O` [GPP, Geranyl Pyrophosphate, reference compound], the Km ([1]; calculated from a Lineweaver-Burk plot, purified enzyme, read-out: Km value for GPP) is reported as 0.9 µM, the “Rate (substrate specificity, relative to GPP = 100%)” value [1] is reported as 100 ± 9.6% and the “Rate with GPP corresponding to 100%” value ([1]; substrate at 12 μM, Table 6 footnote b) is reported as 22. 2 pkat/mg protein. For the same molecule, the “cofactor / substrate requirement of LIS activity” value [2] was “the only substrate”.

`[Mg+2]` [Mg^2+] was tested, and the “efficiency of divalent metal ion as cofactor (in words)” value [1] was “half the rate” and the Km [1, 3] was 330 µM.

`[Mn+2]` [Mn^2+] was tested, and the “efficiency of divalent metal ion as cofactor (in words)” value [1] was “most efficient” and the Km [1, 3] was 45 µM.

With `[Zn+2]` [Zn^2+] the “whether the divalent metal ion supports the enzymatic reaction (Neither ... nor ... support)” value [1] was “Neither”.

With `CCCCCCCCCCCCOS(=O)(=O)[O-].[Na+]` [sodium dodecyl sulfate, reference compound] the “effect of detergent on enzyme activity” value [1] was “complete loss of activity”.

In the case of Hydroxyapatite, the “Specific Activity” value [1] is reported as 44.1 pkat mg^-1 and the “specific activity of preparation loaded on Superdex 75” value ([1]; hydroxyapatite-purified enzyme) is reported as 44.1 pkat/mg protein.

In the case of Triton-X-100 [reference compound], the “effect of detergent on enzyme activity” value [1] is reported as “no effect on enzyme activity”.

B1: LIS: S-linalool synthase purified from stigmata of C. breweri (Mono Q purified enzyme used for characterization), SEQ ID NO:2 (protein)
chain: MQLITNFSSSSSELQFLVDKVKRESLSSSSSNTQNLFLSTSPYDTAWLALIPHPHHHHHHGRPMFEKCLQWILHNQTPQGFWAAAGDNISDTDDDVTLDCLLSTLACLVALKRWQLAPDMIHKGLEFVNRNTERLVMKQKPSDVPRWFTIMFPAMLELAGASSLRVDFSENLNRILVELSQNRDDILTREEVDEKKQYSPLLLFLEALPAQSYDNDVLKQIIDKNLSNDGSLLQSPSATARAYMITGNTRCLSYLHSLTNSCSNGGVPSFYPVDDDLHDLVMVNQLTRSGLTEHLIPEIDHLLLKVQKNYKYKKHHQNHCIALLRNYTGFISIFGCFESIITGYHHQFFCWFLDDDEIRDHIETNYEEFAAVLLNVYRATDLMFSGEVQLVEARSFATKNLEKILATGNIHKTNADISSSLHKMIEHELRVPWTARMDHVENRIWIEEIASSALWFGKSSILRLSCFHKMSLQQLAVKNYTLRQLVYRDELAEVERWSKERGLCDMGFCREKTGYCYYAFAASTCLPWSSDVRLVLTKAAVVITVADDFFDVEGSMVDLEKLTDAVRRWDAEGLGSHSKTIFEALDDLVNEVRLKCFQQNGQDIKNNLQQLWYETFHSWLMEAKWGKGLTSKPSVDVYLGNAMTSIAAHTMVLTASCLLGPGFPVHQLWSQRRHQDITSLLMVLTRLLNDIQSYLKEEDEGKINYVWMYMIENNQASIDDSVRHVQTIINVKKQEFIQRVLSDQHCNLPKSFKQLHFSCLKVFNMFFNSSNIFDTDTDLLLDIHEAFVSPPQVPKFKPHIKPPHQLPATLQPPHQPQQIMVNKKKVEMVYKSYHHPFKVFTLQKKQSSGHGTMNPRASILAGPNIKLCFS
For B1, the pH optimum ([1]; broad optimum) was 7.4, the “Specific Activity” value [1] was 395 pkat mg^-1 and the “stability to vigorous vortexing with non-polar organic solvents” value ([1]; hexane and pentane) was “very stable”. For the same molecule, the “loss of activity in the absence of DTT” value ([1]; over 2 h at 4° C.) was over 95%, the “rate at pH 6.4 and 8.4 relative to the optimal” value ([1]; pH 6.4 and 8.4) was ~ 80% and the turnover number ([1]; under saturating conditions) was 31.6 s⁻¹.
